The values below come from US6809065B2, “Herbicide containing substituted pyrazole derivative as active ingredient” (SDS Biotech K.K., priority 2001, dated 2004).

For data set [1], the system named is soybean (Glycine max). Briefly: Upland soil treatment (Test Example 2), crop. Format: in vivo. The note with it: soil surface treatment next day after sowing, 1 kg active ingredient per hectare, evaluated 21st day, lower index = higher safety. The gist of the method: (§1)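 Pre-emergence soil treatment: day after sowing, WP formulation diluted in water, applied uniformly to soil surface at 1 kg a.i./ha. Seeds sown ~1 cm deep in upland soil. Visual index read 21 d after application (weeds: high = effective; crop: low = safe).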

Data set [2] has as its system wheat (Triticum aestivum). Briefly: Upland soil treatment (Test Example 2), crop. Format: in vivo. The settings on record: soil surface treatment next day after sowing, 1 kg active ingredient per hectare, evaluated 21st day, lower index = higher safety. The gist of the method: as §1
Data set [3] relates to Setaria viridis. In words: Upland field foliage treatment (Test Example 1). Format: in vivo. The settings on record: foliage treatment 14th day after sowing, wettable powder, 1 kg active ingredient per hectare, evaluated 21st day after application. In short, it runs like this: (§2)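 Foliar spray, 1 kg a.i./ha, wettable powder in water, applied 14 d post-sowing; seeds covered by ~1 cm upland soil. Index scoring at 21 d. Higher index = stronger weed control; for crops, lower index = greater safety.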

Data set [4] has as its system Stellaria media. Briefly: Upland field foliage treatment (Test Example 1). The settings on record: foliage treatment 14th day after sowing, wettable powder, 1 kg active ingredient per hectare, evaluated 21st day after application. Format: in vivo. In short, it runs like this: as §2
Data set [5] relates to Chenopodium album. Briefly: Upland field foliage treatment (Test Example 1). Format: in vivo. The note with it: foliage treatment 14th day after sowing, wettable powder, 1 kg active ingredient per hectare, evaluated 21st day after application. In short, it runs like this: as §2
Data set [6] relates to Digitaria adscendens. In words: Upland field foliage treatment (Test Example 1). Format: in vivo. The note with it: foliage treatment 14th day after sowing, wettable powder, 1 kg active ingredient per hectare, evaluated 21st day after application. In short, it runs like this:
as §2

The next data set has as its system Ammannia multiflora. Briefly: Paddy field treatment (Test Example 3). The data set is classed as in vivo. The settings on record: paddy pot, submerged 4 cm, dropped on water surface 10th day after transplantation, 1 kg active ingredient per hectare, evaluated 21st day. In short, it runs like this: (§3)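 Paddy soil in pots was puddled and flooded to 4 cm, weeds were sown, and two-leaf Koshihikari rice was transplanted at 3 cm depth. Ten days after transplanting, wettable powder was applied onto the water surface at 1 kg active ingredient per hectare. Herbicidal effect was index-scored 21 days later.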

A further data set concerns Monochoria vaginalis. Briefly: Paddy field treatment (Test Example 3). Format: in vivo. The settings on record: paddy pot, submerged 4 cm, dropped on water surface 10th day after transplantation, 1 kg active ingredient per hectare, evaluated 21st day. The gist of the method:
as §3

Another data set has as its system Scirpus juncoides. In words: Paddy field treatment (Test Example 3). Format: in vivo. The note with it: paddy pot, submerged 4 cm, dropped on water surface 10th day after transplantation, 1 kg active ingredient per hectare, evaluated 21st day. In short, it runs like this: as §3
Data set [7] deals with Setaria viridis. In words: Upland soil treatment (Test Example 2). The data set is classed as in vivo. The settings on record: soil surface treatment next day after sowing, wettable powder, 1 kg active ingredient per hectare, evaluated 21st day after application. In short, it runs like this:
as §1

In data set [8] the test system is Stellaria media. In words: Upland soil treatment (Test Example 2). The data set is classed as in vivo. The note with it: soil surface treatment next day after sowing, wettable powder, 1 kg active ingredient per hectare, evaluated 21st day after application. In short, it runs like this:
as §1

Data set [9] has as its system Chenopodium album. Briefly: Upland soil treatment (Test Example 2). Format: in vivo. The settings on record: soil surface treatment next day after sowing, wettable powder, 1 kg active ingredient per hectare, evaluated 21st day after application. The gist of the method:
as §1

In data set [10] the test system is Digitaria adscendens. Briefly: Upland soil treatment (Test Example 2). Format: in vivo. The settings on record: soil surface treatment next day after sowing, wettable powder, 1 kg active ingredient per hectare, evaluated 21st day after application. In short, it runs like this:
as §1

The subject of data set [11] is rice (Oryza sative, variety: Koshihikari). In words: Paddy field treatment (Test Example 3), crop. Format: in vivo, Oryza sativa. The settings on record: transplanted rice two-leaf period, water surface treatment 10th day after transplantation, 1 kg active ingredient per hectare, evaluated 21st day, lower index = higher safety. In short, it runs like this:
as §3

In another data set the test system is Echinochloa spp. In words: Paddy field treatment (Test Example 3). The data set is classed as in vivo, Echinochloa crusgalli. The settings on record: paddy pot, submerged 4 cm, dropped on water surface 10th day after transplantation, 1 kg active ingredient per hectare, evaluated 21st day. The gist of the method: as §3
For data set [12], the system named is soybean (Glycine max). Briefly: Upland field foliage treatment (Test Example 1), crop. The data set is classed as in vivo. The settings on record: foliage treatment 14th day after sowing, 1 kg active ingredient per hectare, evaluated 21st day, lower index = higher safety. In short, it runs like this: as §2
Data set [13] has as its system wheat (Triticum aestivum). The data set is described as above. Format: in vivo. The note with it: foliage treatment 14th day after sowing, 1 kg active ingredient per hectare, evaluated 21st day, lower index = higher safety. The gist of the method:
as §2

For the molecule `COC=C(Cn1cc(C)c(-c2ccc(F)cc2)n1)C(=O)OC` [Compound 14], the “Herbicidal activity Glycine max” value is 0 (herbicidal effect of not less than 0% by weight and less than 10% by weight) in the data set on soybean (Glycine max) [1]; 0 (herbicidal effect of not less than 0% by weight and less than 10% by weight) in the data set with soybean (Glycine max) [12]. The “Herbicidal activity Triticum aestivum” value was 0 (herbicidal effect of not less than 0% by weight and less than 10% by weight) in data set [2]; 0 (herbicidal effect of not less than 0% by weight and less than 10% by weight) in data set [13]. The “Herbicidal activity Setaria viridis” value in the data set with Setaria viridis [3] and in the data set on Setaria viridis [7] was 5 (herbicidal effect of not less than 90% by weight) throughout. In addition, the “Herbicidal activity Stellaria media” value with Stellaria media [4] and in the data set on Stellaria media [8] was 5 (herbicidal effect of not less than 90% by weight) each time. The “Herbicidal activity Chenopodium album” value in the data set on Chenopodium album [5] and with Chenopodium album [9] was 5 (herbicidal effect of not less than 90% by weight) in each case. In addition, the “Herbicidal activity Digitaria adscendens” value in the data set with Digitaria adscendens [6] and in the data set on Digitaria adscendens [10] was 5 (herbicidal effect of not less than 90% by weight) each time. In the data set with Ammannia multiflora, the “Herbicidal activity Ammannia multiflora” value is reported as 5 (herbicidal effect of not less than 90% by weight). The “Herbicidal activity Monochoria vaginalis” value in the data set on Monochoria vaginalis was 5 (herbicidal effect of not less than 90% by weight). Further, in the data set on Scirpus juncoides, the “Herbicidal activity Scirpus juncoides” value was 5 (herbicidal effect of not less than 90% by weight). The “Herbicidal activity Oryza sativa” value in [11] was 0 (herbicidal effect of not less than 0% by weight and less than 10% by weight). In addition, the “Herbicidal activity Echinochloa spp.” value in the data set on Echinochloa spp. is on record as 5 (herbicidal effect of not less than 90% by weight).
Take `COC=C(Cn1cc(Cl)c(-c2ccccc2)n1)C(=O)OC` [Compound 15]: the “Herbicidal activity Glycine max” value in the data set with soybean (Glycine max) [1] was 0 (herbicidal effect of not less than 0% by weight and less than 10% by weight); with soybean (Glycine max) [12], 1 (herbicidal effect of not less than 10% by weight and less than 30% by weight). Also, the “Herbicidal activity Triticum aestivum” value in data set [2] is 0 (herbicidal effect of not less than 0% by weight and less than 10% by weight); in data set [13], 0 (herbicidal effect of not less than 0% by weight and less than 10% by weight). The “Herbicidal activity Setaria viridis” value with Setaria viridis [3] and in the data set on Setaria viridis [7] was 5 (herbicidal effect of not less than 90% by weight) throughout. Further, the “Herbicidal activity Stellaria media” value in the data set on Stellaria media [4] and in the data set on Stellaria media [8] was 5 (herbicidal effect of not less than 90% by weight) each time. For the same molecule, the “Herbicidal activity Chenopodium album” value in the data set with Chenopodium album [5] and in the data set on Chenopodium album [9] was 5 (herbicidal effect of not less than 90% by weight) throughout. In addition, the “Herbicidal activity Digitaria adscendens” value in the data set with Digitaria adscendens [6] and with Digitaria adscendens [10] was 5 (herbicidal effect of not less than 90% by weight) each time. For the same molecule, in the data set with Ammannia multiflora, the “Herbicidal activity Ammannia multiflora” value is on record as 5 (herbicidal effect of not less than 90% by weight). Moreover, the “Herbicidal activity Monochoria vaginalis” value in the data set with Monochoria vaginalis is 5 (herbicidal effect of not less than 90% by weight). Besides, in the data set on Scirpus juncoides, the “Herbicidal activity Scirpus juncoides” value is listed as 5 (herbicidal effect of not less than 90% by weight). Also, the “Herbicidal activity Oryza sativa” value in [11] was 0 (herbicidal effect of not less than 0% by weight and less than 10% by weight). Moreover, in the data set with Echinochloa spp., the “Herbicidal activity Echinochloa spp.” value was 5 (herbicidal effect of not less than 90% by weight).
